We go through 1 compound from ChEMBL document CHEMBL1275601, “Striking species difference in the contribution of concentrative nucleoside transporter 2 to nucleoside uptake between mouse and rat hepatocytes” (Antimicrob Agents Chemother, 2010).

Calls of active or inactive are those of the source. The calls are words filed in the database; no cut-off is given here.

The target of this test is T1, Sodium/nucleoside cotransporter 2 (Mus musculus) (UniProt O88627).
T1 sequence (whole entry): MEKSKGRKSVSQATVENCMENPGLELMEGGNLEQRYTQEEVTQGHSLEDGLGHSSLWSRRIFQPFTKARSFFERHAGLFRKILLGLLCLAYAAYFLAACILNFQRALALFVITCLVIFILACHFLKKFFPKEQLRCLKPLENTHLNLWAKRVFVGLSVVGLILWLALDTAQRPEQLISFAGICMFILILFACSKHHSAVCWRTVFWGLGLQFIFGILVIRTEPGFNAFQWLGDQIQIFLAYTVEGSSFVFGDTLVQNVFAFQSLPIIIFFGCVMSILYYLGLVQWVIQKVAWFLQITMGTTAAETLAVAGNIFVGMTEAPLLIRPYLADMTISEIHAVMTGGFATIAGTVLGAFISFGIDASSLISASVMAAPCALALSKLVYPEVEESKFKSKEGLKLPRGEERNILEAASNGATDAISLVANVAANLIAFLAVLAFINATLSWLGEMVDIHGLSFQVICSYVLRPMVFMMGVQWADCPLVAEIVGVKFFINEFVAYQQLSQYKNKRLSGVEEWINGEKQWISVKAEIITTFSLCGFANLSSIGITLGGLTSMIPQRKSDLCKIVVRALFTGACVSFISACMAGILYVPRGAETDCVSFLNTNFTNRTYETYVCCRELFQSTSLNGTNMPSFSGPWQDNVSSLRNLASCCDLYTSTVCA
Kind of test: Transport through CNT2 in mouse hepatocytes by oil filtration assay pre-incubated with 20 ng/mL rotenone for 15 mins and 2 mM 2-deoxyglucose for 10 mins at 37 degC in presence of sodium ions in Kreb-henseleit buffer containing 100 nM NBMPR. Type of test: cell-based. The conditions noted are these: Hepatocyte.

On to `NC(=O)c1ncn([C@@H]2O[C@H](CO)[C@@H](O)[C@H]2O)n1`, for which the outcome was Active.
